Measurements taken from US6586435B2, “Benzimidazolone derivatives displaying affinity at the serotonin and dopamine receptors” (Boehringer Ingelheim Pharma KG, priority 2000, dated 2003).
Where two headings read alike, the source gives them in different places.

Legend:
5-HT1A human receptors = biological target: T1, 5-HT1A human receptors (Homo sapiens, UniProt P08908); experiment: 5-HT1A radioligand receptor binding assay ([3H]-8-OH-DPAT); conditions: for inhibition at 0.1 µM: compound 10^−7 M, singlicate, [3H]-8-OH-DPAT 0.6-0.7 nM
T1 construct: expressed in transfected cells; host or cells: CHO cells
T1 sequence (P08908 1-422): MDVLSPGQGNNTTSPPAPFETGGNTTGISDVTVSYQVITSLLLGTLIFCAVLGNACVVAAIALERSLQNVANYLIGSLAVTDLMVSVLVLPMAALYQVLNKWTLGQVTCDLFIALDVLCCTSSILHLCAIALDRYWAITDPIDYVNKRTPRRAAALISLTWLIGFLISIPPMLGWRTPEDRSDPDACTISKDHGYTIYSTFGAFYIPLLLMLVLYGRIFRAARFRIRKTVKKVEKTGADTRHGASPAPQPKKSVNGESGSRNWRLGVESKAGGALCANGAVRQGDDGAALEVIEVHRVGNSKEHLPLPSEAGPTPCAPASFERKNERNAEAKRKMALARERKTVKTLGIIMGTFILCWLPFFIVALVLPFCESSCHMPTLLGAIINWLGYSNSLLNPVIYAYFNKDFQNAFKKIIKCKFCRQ
Method: 5-HT1A, Radioligand Receptor Binding Assay
Membranes from CHO cells, expressing 5-HT1A human receptors were suspended in incubation buffer.
Binding assays were performed in MultiProbe 204 pipetting system (Packard), according to a predetermined mapping, consistent with the software Screen. The compounds were tested in singlicate at one concentration (10^−7 M) in a total volume of 1000 μl. 980 μl of diluted membranes, 10 μl DMSO or unlabelled ligand, and 10 μl of [^3H]-8-OH-DPAT (0.6-0.7 nM) were incubated for 60 minutes at 27° C. The reaction was stopped by rapid filtration through Tomtec Cell Harvester (48 wells) using Filtermat B (presoaked in 0.1% PEI) filters. Filters were washed with ice-cold 50 mM Tris-HCl (pH 7.4) buffer (9×700 μl), dried, covered with MeltiLex B/HS scintillator sheets (Wallac) and heated at 80° C. to 90° C. for about 10 minutes, transferred into plastic sample bags (Wallac), sealed and put into 1024 Beta Plate scintillation counter (Wallac). Non-specific binding was determined in the presence of 5-HT (10^−5 M).
The specific radioligand binding to the receptor was defined by the difference between total binding and non-specific binding, determined in the presence of an excess of unlabelled ligand. Results were expressed as percentage of control specific binding obtained in the presence of the compounds. The affinity values (IC50) for the compounds were obtained by a nonlinear least squares regression analysis on the basis of a one binding site model.

D4 human receptors = biological target: T2, D4 human receptors (Homo sapiens, UniProt P21917); experiment: D4 radioligand receptor binding assay ([3H] YM-09151-2); conditions: compound 10^−7 M, singlicate; membranes from CHO cells; [3H] YM-09151-2 0.15-0.25 nM
T2 construct: expressed in transfected cells; host or cells: CHO cells
T2 sequence (P21917 1-419): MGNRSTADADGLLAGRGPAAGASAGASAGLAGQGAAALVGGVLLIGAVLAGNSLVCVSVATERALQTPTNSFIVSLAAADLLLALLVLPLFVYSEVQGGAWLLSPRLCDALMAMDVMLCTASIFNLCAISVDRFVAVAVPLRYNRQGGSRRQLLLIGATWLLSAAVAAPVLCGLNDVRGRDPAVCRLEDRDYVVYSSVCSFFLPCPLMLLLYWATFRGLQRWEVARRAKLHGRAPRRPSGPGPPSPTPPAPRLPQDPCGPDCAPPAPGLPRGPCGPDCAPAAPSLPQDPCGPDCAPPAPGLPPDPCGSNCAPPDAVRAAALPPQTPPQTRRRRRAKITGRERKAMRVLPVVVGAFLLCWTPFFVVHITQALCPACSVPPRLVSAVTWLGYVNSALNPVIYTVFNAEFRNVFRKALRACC
Method: D4 Radioligand Receptor Binding Assay
Membranes from CHO cells, expressing D4 human receptors were suspended in incubation buffer.
Binding assays were performed in MultiProbe 204 pipetting system (Packard), according to a predetermined mapping, consistent with the software Screen. The compounds were tested in singlicate at one concentration (10^−7 M) in a total volume of 1000 μl (980 μl of diluted membranes, 10 μl DMSO or unlabelled ligand, and 10 μl of [^3H] YM-09151-2 (0.15-0.25 nM). After incubation for 120 minutes at 27° C., the reaction was stopped by rapid filtration through Tomtec Cell Harvester (48 wells) using Filtermat B (presoaked in 0.1% PEI) filters. Filters were washed with ice-cold 50 mM Tris-HCl (pH 7.4) buffer (9×700 μl), dried, covered with MeltiLex B/HS (Wallac) scintillator sheets and heated in oven at 80° C.-90° C. for about 10 minutes, transferred into plastic sample bags (Wallac), sealed and put into 1024 Beta Plate scintillation counter (Wallac). Non-specific binding was determined in the presence of clozapine dissolved in DMSO to a final concentration of 10^−5 M.
The specific radioligand binding to the receptor was defined by the difference between total binding and non-specific binding, determined in the presence of an excess of unlabelled ligand. Results were expressed as percentage of control specific binding obtained in the presence of the compounds.

[1] = biological target: T3, 5-HT1A receptor (CHO/5-HT1A cells) (Homo sapiens, UniProt P08908); experiment: 5-HT1A functional assay (cAMP); type: cell-based; conditions: 10 μM compound, % inhibition of the cAMP accumulation induced by 10 μM FSK, read-out: 5-HT1A cAMP % Inhibition (agonist activity)
T3 construct: expressed in transfected cells; host or cells: CHO/5-HT1A cells
T3 sequence (P08908 1-422): T1 sequence (P08908 1-422)
Method: 5-HT1A Functional Assay (cAMP)
CHO/5-HT1A cells were random seeded at a density of about 200,000/well in 24 well plates the day prior to the experiment. On the day of the experiment, cells were pretreated for 15 minutes at 37° C. with 500 μM isobutylmethylxantine (IBMX) dissolved in culture medium without serum. Wells were then divided in different groups in duplicate as follows: control, 10 μM FSK, 10 μM FSK+1 μM 5-HT as positive standard and 10 μM FSK+10 μM of the different compound under evaluation. Sample solutions were added and incubated for additional 15 minutes at 37° C. After incubation, medium was aspirated and the reaction stopped by adding 200 μl of lysis buffer. Plates were shaken for 5 minutes, then the lysate was removed and samples were stored at 4° C. until the day of the assay. For the cAMP evaluation, samples were properly diluted and the cAMP content was measured by an enzyme immunoassay system.
Results are expressed as % inhibition of the cAMP accumulation induced by 10 μM FSK.

[2] = membranes from CHO cells, [3H]-8-OH-DPAT, one binding site model, read-out: 5-HT1A Receptor Binding IC50

inhibition at 0.1 µM (5-HT1A human receptors; membranes from CHO cells) [%] | inhibition at 0.1 µM (D4 human receptors) [%] | inhibition at 10 µM [1] [%] | IC50 (5-HT1A human receptors; [2]) [nM] | SMILES | IC50 (5-HT1A human receptors) [nM]
91 | 72 | 63 | 9.8 | Cn1c(=O)n(C/C=C\CN2CCN(c3cccc(Cl)c3)CC2)c2ccccc21 [Compound 39] | 
94 | 54 | 73 | 1.2 | Cn1c(=O)n(C/C=C\CN2CCN(c3cccc(C(F)(F)F)c3)CC2)c2ccccc21 [Compound 43] | 
90 | 47 | 54 | 16 | CCCn1c(=O)n(C/C=C\CN2CCN(c3ccccc3)CC2)c2ccccc21 [Compound 52] | 
92 | 65 | 65 | 11 | CCCn1c(=O)n(C/C=C\CN2CCN(c3cccc(Cl)c3)CC2)c2ccccc21 [Compound 56] | 
88 | 30 | 71 | 1.8 | CCCn1c(=O)n(C/C=C\CN2CCN(c3cccc(C(F)(F)F)c3)CC2)c2ccccc21 [Compound 60] | 
90 | 41 | 52 | 13 | O=c1n(C/C=C\CN2CCN(c3ccccc3)CC2)c2ccccc2n1CC1CCCCC1 [Compound 69] | 
92 | 34 | 66 | 10 | Cn1c(=O)n(C/C=C/CN2CCN(c3ccccn3)CC2)c2ccccc21 [Compound 89] | 
98 | 79 | 62 | 4.6 | Cn1c(=O)n(C/C=C/CN2CCN(c3cccc(Cl)c3)CC2)c2ccccc21 [Compound 90] | 
88 | 54 | 46 | 15 | Cn1c(=O)n(C/C=C/CN2CCc3c([nH]c4ccccc34)C2)c2ccccc21 [Compound 92] | 
 |  | 75 | 0.96 | Cn1c(=O)n(C/C=C/CN2CCN(c3cccc(C(F)(F)F)c3)CC2)c2ccccc21 [Compound 94] | 
92 | 37 | 68 | 7.4 | CCCn1c(=O)n(C/C=C/CN2CCN(c3ccccn3)CC2)c2ccccc21 [Compound 106] | 
98 | 49 | 17 | 6 | O=c1n(C/C=C/CN2CCN(c3ccccc3)CC2)c2ccccc2n1CC1CCCCC1 [Compound 120] | 
98 | 57 | 63 | 1.2 | O=c1n(C/C=C/CN2CCN(c3ccccn3)CC2)c2ccccc2n1CC1CCCCC1 [Compound 123] | 
99 | 49 | 47 | 11 | O=c1n(C/C=C/CN2CCN(c3cccc(Cl)c3)CC2)c2ccccc2n1CC1CCCCC1 [Compound 124] | 
 |  | 61 | 8.4 | O=c1n(C/C=C/CN2CCN(c3cccc(C(F)(F)F)c3)CC2)c2ccccc2n1CC1CCCCC1 [Compound 128] | 

The next lines start with the compound.

SMILES | inhibition at 0.1 µM (5-HT1A human receptors; membranes from CHO cells) [%] | inhibition at 0.1 µM (D4 human receptors) [%] | inhibition at 10 µM [1] [%] | IC50 (5-HT1A human receptors; [2]) [nM] | IC50 (5-HT1A human receptors) [nM]
O=c1[nH]c2ccccc2n1C/C=C/CN1CCN(c2cccc(C(F)(F)F)c2)CC1 [Compound 9] | 96 | 54 | 80 |  | 4.8
O=c1[nH]c2ccccc2n1C/C=C\CN1CCN(c2cccc(C(F)(F)F)c2)CC1 [Compound 26] | 94 | 49 | 68 |  | 6.6
O=c1[nH]c2ccccc2n1C/C=C\CN1CC=C(c2ccccc2)CC1 [Compound 27] | 87 | 70 | 44 |  | 6.4
Cn1c(=O)n(C/C=C\CN2CCN(c3ccccc3)CC2)c2ccccc21 [Compound 35] | 88 | 59 | 66 | 15 | 
Cn1c(=O)n(C/C=C\CN2CC=C(c3ccccc3)CC2)c2ccccc21 [Compound 44] | 94 | 69 | 47 |  | 2.5
CCCn1c(=O)n(C/C=C\CN2CC=C(c3ccccc3)CC2)c2ccccc21 [Compound 61] | 90 | 44 | 26 |  | 5.2
O=c1n(C/C=C\CN2CC=C(c3ccccc3)CC2)c2ccccc2n1CC1CCCCC1 [Compound 78] | 86 | 40 | 27 |  | 18
Cn1c(=O)n(C/C=C/CN2CC=C(c3ccccc3)CC2)c2ccccc21 [Compound 95] | 92 | 46 | 22 |  | 7.3
CCCn1c(=O)n(C/C=C/CN2CCN(c3cccc(Cl)c3)CC2)c2ccccc21 [Compound 107] | 96 | 69 | 54 | 5.3 | 
CCCn1c(=O)n(C/C=C/CN2CCN(c3cccc(C(F)(F)F)c3)CC2)c2ccccc21 [Compound 111] | 94 | 32 | 68 | 4.4 | 
CCCn1c(=O)n(C/C=C/CN2CC=C(c3ccccc3)CC2)c2ccccc21 [Compound 112] | 87 | 43 | 9 |  | 13
O=c1n(C/C=C/CN2CCc3c([nH]c4ccccc34)C2)c2ccccc2n1CC1CCCCC1 [Compound 126] |  |  | 44 | 15 | 
O=c1n(C/C=C/CN2CC=C(c3ccccc3)CC2)c2ccccc2n1CC1CCCCC1 [Compound 129] |  |  | 13 |  | 5.5
